Patent publication US20110150833A1, “BENZOPYRANS AND ANALOGS AS RHO KINASE INHIBITORS” (The Scripps Research Institute, priority 2007, published 2011)

Tested on: N2a cells
Test: In vitro cell-based neurite length (N2a) assay
Settings: Mus musculus, neurite retraction induced by 5 uM LPA
Experimental: In Vitro Cell-Based Neurite Length (N2a) Assay
N2a cells are maintained in DMEM/FBS at 37 C and 5% CO2. For the experiment the cells were plated on a poly-D-lysine coated 96-well tissue culture plate. After attachment, cell differentiation was induced for 2 days by addition of 10 uM retinoic acid. Cells were treated for 1 h with a dilution of compounds in 0.3% DMSO final concentration before neurite retraction was induced by 5 uM LPA. Cells were stained for tubulin and nuclei and images were acquired on an INCell 1000 workstation. Images were analyzed using the developer toolbox and neurite length was quantitated.

- IC50: 27 nM
SMILES: COc1ccc2c(c1)CC(C(=O)Nc1ccc(-c3cn[nH]c3)cc1)CO2 (stereo not shown) [Example 92, 6-methoxy-chroman-3-carboxylic acid [4-(1H-pyrazol-4-yl)-phenyl]-amide]
